Where only a bound is given, the exact number is not on record here.

The text below walks through data of a melting point compilation (Tetko et al.; mined from patent text by program, amines drawn as free bases though some values may be those of a salt).

`Cc1cc(C=CC#N)cc(Oc2[nH]c(=O)[nH]c(=O)c2C(C)C)c1` displayed a melting point of 279 to 280 °C.
Under `Nc1nc2ccc(OS(=O)(=O)c3ccc(F)cc3)cc2[nH]1` stands 192 °C.
Turning to `O=C(c1ccc(F)cc1)c1cc(F)ccc1OCCCCl`, the melting point was found to be 60 °C.
As for `CC(=O)OC1CSC(Oc2cncc(-c3cnn(C)c3)c2)C(OC(C)=O)C1OC(C)=O` (configuration not stated), the melting point stood at 68 °C.
Under `O=C1CCC(N2Cc3cc(CNC(=O)Nc4c(Cl)cccc4Cl)ccc3C2=O)C(=O)N1` (configuration not stated) stands 238 to 240 °C; under `CC1(C)Oc2ccsc2C(N)C1O` (configuration not stated), 111 to 116 °C.
Take `CC(C)C[C@H](NC(=O)NCc1ccccc1)C(=O)N[C@@H](Cc1ccccc1)C(=O)CSCc1ccco1`: the melting point is 95 to 97 °C.
Regarding `N=C(N)NC(=O)C[C@H]1c2cc(C(F)(F)F)ccc2C(=O)N1CC(F)(F)F`, the melting point worked out at 122 °C.
Under `COc1ccc(CNc2nc(COCC(=O)O)nc3sc4c(c23)CCCC4)cc1Cl` stands 136 to 137 °C; under `O=c1oc(-c2ccccc2)cc(O)c1SCCc1ccccc1`, 121 to 124 °C; under `O=C(O)c1cc(Cl)cc(Cl)c1NS(=O)(=O)c1ccc(Cl)cc1`, 273 to 276 °C.
The figure for `CC(C)(C)Nc1nc(NC(C)(C)C)nc(N2CC3CCC(CC3)C2)n1` is 217 to 222 °C; for `FC(F)(F)c1ccccc1OCCCc1cn(C(c2ccccc2)(c2ccccc2)c2ccccc2)cn1` it is 204 to 208 °C.
`CCNC(=O)CCCNC(=O)OC(C)(C)C`: the melting point was in the range of 82 to 83 °C.
The molecule `CC(=O)Oc1ccc(Cn2ncc(-c3ccc(S(C)(=O)=O)cc3)c(-c3ccc(F)cc3)c2=O)cc1` displayed a melting point of 172 to 174 °C.
Under `Nc1ncnc2c1c(-c1ccc(Oc3ccccc3)cc1)nn2C1CCC2(CC1)OCCO2` stands 200 to 202 °C.
Under `CCCn1c(=O)n2c(-c3ccccc3)nnc2c2[nH]cnc21` stands 273 to 280 °C; under `CSC(=NC(=O)N(C)C)NC(=O)NC(C)(C)C`, 74 to 78 °C.
`Cn1ccc2ncnc(Oc3ccc(NC(=O)Nc4cc(C(F)(F)F)ccc4F)c(Cl)c3)c21` returned a melting point of 193 to 197 °C.
The molecule `Cc1cc(C)cc(C(=O)c2c(-c3ccc(OCCN(C)C)cc3)oc3ccccc23)c1` yielded a melting point of 132 to 135 °C.
The molecule `Cn1c(=O)c(=NO)nc(-c2ccccc2)c2cnccc21` returned a melting point of 223 to 224 °C.
The figure for `O=C(c1cccc(-c2cc3ccccc3[nH]2)c1)c1cc2ccccc2[nH]1` is 206 to 207 °C; for `O=S(=O)(c1cccc(F)c1)N1CCCC1c1ccc(F)cc1` (racemic) it is 101 °C; for `CCCC(=O)Nc1cc(NC(=O)CCC)c2ccc(C)nc2c1OC(=O)CCC` it is 195 to 200 °C.
The figure for `CCOC(=O)OC1=C(c2c(C)cc(C)cc2C)C(=O)NC1C1CCN(OC)CC1` (configuration not stated) is 154 to 155 °C; for `COC(=O)CCC(=O)OC1CC(C)(C)N(O)C(C)(C)C1` it is 76 °C; for `Cc1cc(-c2nc3ccc(CCN4CCCC4)cc3c(=O)[nH]2)cc(C)n1` it is 212 to 213 °C.
The figure for `C[C@]1(CN2CCN(C(=O)N3CC=C(c4ccc(Cl)cc4)CC3)CC2)Cn2cc([N+](=O)[O-])nc2O1` is 161 to 162 °C; for `NC(=O)c1ccc2[nH]cc(C3=CCNCC3)c2c1` it is 225 to 230 °C.
As for `O=C(Cl)C=Cc1cccc([N+](=O)[O-])c1`, the melting point was 81 to 83.5 °C.
Under `CCCCc1nc2cccc(C(=O)OC)c2n1Cc1ccc(-c2ccccc2-c2nnn[nH]2)cc1` stands 153 to 155 °C.
The molecule `CC(C)CCc1c(-c2ccc(S(N)(=O)=O)c(F)c2)cnn(CC(F)(F)F)c1=O` registered a melting point of 153 to 156 °C.
Under `CCCc1c(OCCCOc2cccc3c2CCCC3)ccc2c1OC(CCCO)(CCCO)CC2O` (configuration not stated) stands 123 to 124 °C; under `CC(=O)NC[C@H]1CN(c2ccc(C(=O)c3cnc4cc(C)ccn34)cc2)C(=O)O1`, 254 to 256 °C.
Molecule `CCc1nc2cc(C#N)c(Cl)cc2n1-c1ccc(CCNC(=O)NS(=O)(=O)c2ccc(C)cc2)cc1` registered a melting point of 219 to 224 °C.
Under `COc1cc(C(C)C)c2c(c1)S(=O)(=O)N(COc1cc(C(F)(F)F)nn1-c1ncccn1)C2=O` stands 133 to 134 °C; under `CC1(C)CCCCc2ccc(C(=O)O)cc21`, 155 to 156 °C; under `CCCCCCCCCCCCCCCc1cc2c(C(=O)O)cccc2[nH]1`, 114 to 117 °C.
Under `CCCC(OC)(C(=O)n1ccnc1)c1ccc(Cl)cc1Cl` (configuration not stated) stands 99 to 101 °C.
Under `O=c1[nH]c(=O)n(C2CC(OCc3ccccc3)C(COC(c3ccccc3)(c3ccccc3)c3ccccc3)O2)cc1F` (configuration not stated) stands 138 to 139 °C; under `Nc1nc2[nH]c(=S)sc2c(=O)[nH]1`, more than 300 °C; under `CN(C)C(=O)c1c(-c2ccc(C(F)(F)F)cc2)ccc2ccccc12`, 184 to 186 °C.
For `COc1cc(C(=O)c2ccccc2)cc(C#N)c1OC`, the melting point fell in the range of 98 to 100 °C.
For `CCCCCCCCCCCCCCOc1cc(OCCCCCCCCCCCCCC)cc(C(=O)N(CC(=O)O)CC(=O)O)c1`, the melting point lay within 88 to 90 °C.
In turn, `CC(C)ON=C(c1cccc(O)c1)n1cncn1` showed a melting point of 160 to 163 °C.
For `CCCCc1ccc(OC)c(-c2csc(NC(=O)c3ccc(C(=O)N4CCC(N5CCC(NS(C)(=O)=O)C5)CC4)cc3)n2)c1` (configuration not stated), the melting point turned out to be 125 °C.
The figure for `CC(=O)c1cnccc1NC(=O)C(C)(C)C` is 95 °C; for `N#Cc1cc(Cl)ncc1Cl` it is 55 to 58 °C; for `O=C(CCN1CCN(c2cccc(Cl)c2)CC1)N1CC2CC3CC(C2)CC1C3` it is 110 to 112 °C.
Under `O=C(Nc1ccccc1C(F)(F)F)c1cc(-c2ccc(F)cc2F)ccc1O` stands 180 to 181 °C.
As for `CN1Cc2c(C(=O)NN)ncn2-c2ccsc2C1=O`, the melting point was more than 260 °C.
`CC1(C)CC(=O)C(C(=S)Nc2ccc(Cl)c(Cl)c2)C(=O)C1`: the melting point lay in the range of 113 to 116 °C.
Under `COC(=O)C(=O)c1ccc(OCc2ccc3ccccc3n2)cc1` stands 109 to 110 °C; under `Cc1noc(C)c1Cn1cc(NC(=O)c2scc(S(C)(=O)=O)c2Cl)cn1`, 202 to 204 °C.
The figure for `COc1ccc(S(=O)(=O)CCNC(=O)N2CCCC2=O)cc1` is 124 to 125 °C; for `CC(C)Cn1c(CNC(=O)OC(C)(C)C)c(-c2ccc(Cl)cc2)c2cc(C(N)=O)ccc2c1=O` it is 144 to 146 °C; for `Cc1nnc(Cl)c(-c2c(F)cc(F)cc2F)c1-c1cccs1` it is 90 to 92 °C.
In turn, `[N-]=[N+]=N[C@@H]1c2cc(F)ccc2Oc2ccccc2[C@H]1C[C@@H](O)COC(c1ccccc1)(c1ccccc1)c1ccccc1` registered a melting point of 58 to 59 °C.
Regarding `CNC(=O)N1CCC(Oc2ccc(C(F)(F)F)cc2)(c2ccccc2)CC1`, the melting point was 118 to 120 °C.
For `COc1cc(Nc2c(C#N)cnc3cc(C#CCCN4CCN(C)CC4)c(OC)cc23)c(Cl)cc1Cl`, the melting point fell in the range of 165 to 167 °C.
The figure for `O=C1c2ccc([N+](=O)[O-])cc2C2(c3ccccc3)NCCN12` (configuration not stated) is 203 °C; for `CC(C)(CO)NS(=O)(=O)c1ccc(Cl)c(N)c1` it is 108 °C.
The molecule `Cc1ccc2c(c1)c(N1CCN(C(=O)c3cccs3)CC1)c(C#N)c(=O)n2CCN(C)C` came in with a melting point of 110 to 117 °C.
The figure for `COC(=O)N=P(c1ccccc1)(c1ccccc1)c1ccccc1` is 138 to 139 °C.
Under `CCCCc1ccc(S(=O)(=O)CC(O)(CS(=O)(=O)c2ccc(OC)cc2)C(=O)NO)cc1` (configuration not stated) stands 63 to 68 °C; under `COc1cc(C(=O)Nc2c(C)cccc2C)nn1C`, 144 °C.
The figure for `CC(C)(Oc1ccc(Cc2ccccc2)cc1)C(=O)O` is 130 °C; for `CN(C)C(=O)N(C)C(=O)Nc1ccccc1` it is 89.5 to 90.5 °C; for `COC(=O)C[C@H](O)C[C@H](O)CCc1c(-c2ccc(F)cc2)c(-c2ccccc2)c(C(=O)Nc2cccc(S(N)(=O)=O)c2)n1C(C)C` it is 80 to 81 °C.
As to `Cc1cn(C)c2c1N(C(=O)CCBr)c1ccccc1NC2=O`, the melting point was in the range of 194 to 195 °C.
In turn, `CCOC(=O)c1ccc(Nc2ccc([N+](=O)[O-])cc2[N+](=O)[O-])cc1` returned a melting point of 99 to 102 °C.
In turn, `C[C@H](O)C(=O)Nc1ccccn1` gave a melting point of 102 to 104 °C.
The figure for `Fc1ccc(N2CCN(CCCOc3ccc(-c4nnco4)cc3)CC2)cc1` is 157 to 158 °C.
Under `Cc1ccc(Oc2ccc(OC(=O)N3CCC(C)CC3)cc2)cc1` stands 79 to 81 °C; under `Cc1cc(CC(=O)O)ccc1[N+](=O)[O-]`, 95 °C; under `CC(C)N(N=O)c1ccc(N(N=O)c2ccccc2)cc1`, 85 to 89 °C.
Under `O=C(OCc1ccncc1)c1cc2c(=O)n(Cc3ccccc3)c(=O)[nH]c2s1` stands 248 to 250 °C; under `CCCCCc1ccc(-c2ccc(F)cc2)nc1`, 27 °C; under `CCN(CC)C(=O)Nc1ccccc1`, 81 to 85 °C.
The molecule `Cc1nn(-c2cc(C(F)(F)F)ccc2Cl)cc1C(=O)N(CC(=O)O)c1ccc(OCC(C)(C)C)c(C#N)c1` showed a melting point of 189 to 190 °C.
In turn, `O=S1(=O)CCN2C=CC=C(c3ccc(Oc4ccc(O)cc4)cc3)C2=N1` gave a melting point of 289 to 290 °C.
Under `COc1ccc(C(Cc2ccc(C(N)=O)cc2)c2ccccc2)cc1OC1CCCC1` (configuration not stated) stands 73 to 75 °C; under `Cc1cc(-c2ccc(S(C)(=O)=O)cc2)n(-c2ccc(F)cc2)c1`, 127 to 130 °C; under `O=C(O)CCc1cn(Cc2ccc(OCc3ccc4ccccc4n3)cc2)nc1-c1ccc(F)cc1`, 178 to 179 °C.
The figure for `CNC(=O)N1C(=O)C(=O)c2cc(F)ccc21` is 230 to 232 °C; for `COc1cccc2c1CC(=O)c1cc(C(C)C(N)=O)ccc1S2` (configuration not stated) it is 178 to 180 °C; for `N#Cc1ccc(COc2cc(O)cc(C(=O)Nc3ccc(C#N)cc3)c2)cc1` it is 199 to 201 °C.

As a reminder, the melting point is the temperature, or range, at which the solid turns liquid.
